ChEMBL document CHEMBL1201862, “PubChem BioAssay data set” (2004)
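48-hour exposure; five concentrations; linearly interpolated endpoints. The concentration for 50% growth inhibition is given as GI50.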 The source made the active and inactive calls. No stated cut-off is given here; in the data, active = GI50 up to about 1.1 µM and inactive = higher.

What was measured:
Assay in all cases: NCI tumour cell line growth inhibition, 48 h
EKVX = test system: EKVX
OVCAR-5 = test system: OVCAR-5
OVCAR-8 = test system: OVCAR-8
Hs-578T = test system: Hs-578T
MCF7 = test system: MCF7
SNB-19 = test system: SNB-19
HOP-62 = test system: HOP-62
A498 = test system: A498
HT-29 = test system: HT-29
MDA-MB-435 = test system: MDA-MB-435
TK-10 = test system: TK-10
IGROV-1 = test system: IGROV-1
A549 = test system: A549
CCRF-CEM = test system: CCRF-CEM
PC-3 = test system: PC-3
NCI-H226 = test system: NCI-H226
OVCAR-4 = test system: OVCAR-4
RPMI-8226 = test system: RPMI-8226
HCT-116 = test system: HCT-116
SR = test system: SR

Compound | GI50 (EKVX) | GI50 (OVCAR-5) | GI50 (OVCAR-8) | GI50 (Hs-578T) | GI50 (MCF7) | GI50 (SNB-19) | GI50 (HOP-62) | GI50 (A498) | GI50 (HT-29) | GI50 (MDA-MB-435) | GI50 (TK-10) | GI50 (IGROV-1) | GI50 (A549) | GI50 (CCRF-CEM) | GI50 (PC-3) | GI50 (NCI-H226) | GI50 (OVCAR-4) | GI50 (RPMI-8226) | GI50 (HCT-116) | GI50 (SR)
CC1=C(O)C(=O)C[C@]2(C)[C@H]3CC=C4[C@@H]5CC(C)(C)CC[C@@H]5C(=O)[C@H](O)[C@@]4(C)[C@]3(C)CC[C@@H]12 | > 50 µM (inactive) | > 50 µM (inactive) | 22.6 µM (inactive) | 25.1 µM (inactive) | > 50 µM (inactive) | > 50 µM (inactive) | 30.7 µM (inactive) | > 50 µM (inactive) | > 50 µM (inactive) | > 50 µM (inactive) | 23.9 µM (inactive) | 21.8 µM (inactive) | 24.8 µM (inactive) | > 50 µM (inactive) | 16.7 µM (inactive) | > 50 µM (inactive) | 40.4 µM (inactive) | 42.5 µM (inactive) | > 50 µM (inactive) | 
Cc1cn(C2CC(OC(=O)c3ccc(Cl)cc3)C(COC(=O)c3ccc(Cl)cc3)O2)c(=O)[nH]c1=O (centres undefined) | > 100 µM (inactive) | > 100 µM (inactive) | > 100 µM (inactive) | > 100 µM (inactive) | > 100 µM (inactive) | > 100 µM (inactive) | > 100 µM (inactive) |  | > 100 µM (inactive) | > 100 µM (inactive) | > 100 µM (inactive) | > 100 µM (inactive) | > 100 µM (inactive) | > 100 µM (inactive) | > 100 µM (inactive) | > 100 µM (inactive) | > 100 µM (inactive) | > 100 µM (inactive) | > 100 µM (inactive) | > 100 µM (inactive)
COc1ccc(-c2coc3cc(O)ccc3c2=O)cc1 [FORMONONETIN] |  | > 100 µM (inactive) | > 100 µM (inactive) | > 100 µM (inactive) | > 100 µM (inactive) | > 100 µM (inactive) | > 100 µM (inactive) | > 100 µM (inactive) | > 100 µM (inactive) | > 100 µM (inactive) | > 100 µM (inactive) | > 100 µM (inactive) | > 100 µM (inactive) | > 100 µM (inactive) | > 100 µM (inactive) | > 100 µM (inactive) |  |  | > 100 µM (inactive) | > 100 µM (inactive)
CN1C(=O)[C@H](c2c[nH]c3ccccc23)[C@H](c2c[nH]c3ccccc23)C1=O | 29.4 µM (inactive) | > 41.6 µM (inactive) | 31 µM (inactive) | 31.3 µM (inactive) | 29.9 µM (inactive) | 41.4 µM (inactive) | 27.7 µM (inactive) |  | 34.7 µM (inactive) | 26.4 µM (inactive) | 22 µM (inactive) | 6.97 µM (inactive) | 32.9 µM (inactive) | 18.6 µM (inactive) | 24.3 µM (inactive) | 27.2 µM (inactive) | 5.32 µM (inactive) | 24.9 µM (inactive) | 25.8 µM (inactive) | 22.6 µM (inactive)
C=C(C)[C@]12CC(C)C34OC(/C=C\C=C\CCCCCCCCC)(O[C@@H]1[C@@H]3[C@@H]1O[C@]1(CO)[C@@H](O)[C@]1(O)C(=O)C(C)=C[C@@H]41)O2 (some centres undefined) | 13.4 µM (inactive) | 17.1 µM (inactive) | 16.3 µM (inactive) | 0.01 µM (active) | 10.6 µM (inactive) | 16.6 µM (inactive) |  |  | 2.21 µM (inactive) | 0.0223 µM (active) | 0.000288 µM (active) | 14.8 µM (inactive) | < 0.012 µM (active) | 2.52 µM (inactive) | 2 µM (inactive) | 18 µM (inactive) | 9.93 µM (inactive) | 11.9 µM (inactive) | 7.48 µM (inactive) | 2.16 µM (inactive)
CC1=CC=C2c3ccccc3C=CN2C(=O)C1 | 23 µM (inactive) | > 100 µM (inactive) | 56.5 µM (inactive) | 35.6 µM (inactive) | 45.3 µM (inactive) | 70.5 µM (inactive) | > 100 µM (inactive) |  | 51.4 µM (inactive) | 34.8 µM (inactive) | 20.1 µM (inactive) | > 100 µM (inactive) | 41.3 µM (inactive) | 38.8 µM (inactive) | 50 µM (inactive) | 54.8 µM (inactive) | > 100 µM (inactive) | 25.7 µM (inactive) | 40.8 µM (inactive) | 40.7 µM (inactive)
COc1cc(C2c3cc4c(cc3C3OC[C@@H]2C3CO)OCO4)cc(OC)c1OC (some centres undefined) | 41.2 µM (inactive) | 60.5 µM (inactive) | 40.7 µM (inactive) | 34.4 µM (inactive) | 35.2 µM (inactive) | 57.3 µM (inactive) |  | 42 µM (inactive) | 28.4 µM (inactive) | 6.81 µM (inactive) | 37.5 µM (inactive) | 43.1 µM (inactive) | 44.7 µM (inactive) | 23.4 µM (inactive) | 49.3 µM (inactive) | 20.2 µM (inactive) | 71.1 µM (inactive) | 38.6 µM (inactive) |  | 13.3 µM (inactive)
